Twelve compounds from ChEMBL document CHEMBL1201862, “PubChem BioAssay data set” (2004) can be followed below.

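Dose response: 5 concentrations. Exposure: 48 h. Format: 96-well plates. Endpoint: linear interpolation; highest concentration if not reached. At the GI50, growth is halved.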 The source made the active and inactive calls. Rule as the data show it: active = GI50 up to about 1.1 µM and inactive = higher. Where only a bound is given, the exact number is not on record here.

Some test systems named below: COLO 205; HOP-62; KM12; LOX IMVI; MCF7; MDA-MB-231; Malme-3M; NCI-H23; NCI-H460; OVCAR-4; OVCAR-5; RPMI-8226; RXF 393; SF-539; SK-MEL-2; SN12C; U-251; UACC-62; SNB-19; SR.
Common to all, as to experiment: growth of human tumour cells (NCI), 48 h

With `N=C(N)Nc1ccc(CC(N)C(=O)NCC(=O)C(CC(=O)O)c2ncc(NC(=O)C(F)(F)F)o2)cc1` (stereo not drawn), the GI50 with COLO 205 was > 25 µM (inactive); in the assay on HOP-62 it was > 25 µM (inactive); in the assay with KM12 it was > 25 µM (inactive); in the assay with LOX IMVI, > 25 µM (inactive); in the assay on MCF7, 18.4 µM (inactive); in the assay with MDA-MB-231, > 25 µM (inactive). The GI50 with Malme-3M, in the assay with NCI-H23, in the assay on NCI-H460, in the assay on OVCAR-4, in the assay on OVCAR-5 and in the assay with RPMI-8226 was > 25 µM (inactive) in each case. The GI50 with RXF 393 was > 25 µM (inactive); in the assay with SF-539, > 25 µM (inactive); in the assay with SK-MEL-2 it was > 25 µM (inactive); in the assay with SN12C it was 9.27 µM (inactive); in the assay with U-251, > 25 µM (inactive); in the assay with UACC-62 it was > 25 µM (inactive).
On to `COc1cc2nc(-c3cccs3)nc(N3C(c4ccc(O)cc4)=NNC(=O)c4ccccc43)c2cc1OC`, for which the GI50 in the assay on COLO 205 was 20.8 µM (inactive); in the assay on HOP-62 it was 56.5 µM (inactive); in the assay on KM12 it was 32.7 µM (inactive); in the assay with LOX IMVI it was 22.3 µM (inactive); with MCF7, 36.7 µM (inactive); in the assay on MDA-MB-231, 18.9 µM (inactive). For the same compound, the GI50 in the assay on Malme-3M is 21.1 µM (inactive); in the assay on NCI-H23 it was 27.5 µM (inactive); in the assay on NCI-H460, 26.5 µM (inactive); with OVCAR-4, 28.8 µM (inactive); with OVCAR-5, 28.8 µM (inactive); with RPMI-8226, 15 µM (inactive). The GI50 in the assay with RXF 393 was 19.8 µM (inactive); in the assay on SF-539, < 0.01 µM (active); in the assay with SK-MEL-2 it was 26.9 µM (inactive); in the assay on SN12C, 24.2 µM (inactive); in the assay on SNB-19, 35.6 µM (inactive); in the assay with U-251, 27.8 µM (inactive). Also, in the assay on UACC-62, the GI50 is 20.5 µM (inactive).
Turning to `N=C(N)N/N=C/c1c(-c2ccc(Cl)cc2)nc2sc(Cl)cn12`, the GI50 was 0.923 µM (active) in the assay with COLO 205; 1.85 µM (inactive) with HOP-62; 1.03 µM (active) with KM12; 0.169 µM (active) in the assay on LOX IMVI; 1.53 µM (inactive) in the assay on MCF7; 1.82 µM (inactive) in the assay with MDA-MB-231. The GI50 in the assay with NCI-H23 is 1.08 µM (active); with NCI-H460 it was 1.69 µM (inactive); in the assay on OVCAR-4 it was 1.02 µM (active); in the assay on OVCAR-5 it was 1.67 µM (inactive); in the assay with SF-539 it was 1.27 µM (inactive); with SK-MEL-2, 1.71 µM (inactive). Besides, the GI50 in the assay with SN12C was 1.77 µM (inactive); in the assay with SNB-19, 1.86 µM (inactive); with U-251, 0.658 µM (active); in the assay on UACC-62 it was 1.78 µM (inactive).
`Nc1nc(Nc2cc(F)c(Cl)c(F)c2)cc(=O)[nH]1`: the GI50 in the assay on COLO 205 is > 100 µM (inactive); in the assay with HOP-62 it was > 100 µM (inactive); in the assay on KM12 it was 27 µM (inactive); in the assay with LOX IMVI it was > 100 µM (inactive); with MCF7, 75.9 µM (inactive); in the assay with MDA-MB-231, 68.2 µM (inactive). The GI50 is > 100 µM (inactive) in the assay on Malme-3M; 95.9 µM (inactive) in the assay on NCI-H23; > 100 µM (inactive) in the assay on NCI-H460; > 100 µM (inactive) with OVCAR-4; > 100 µM (inactive) in the assay with OVCAR-5; 56.4 µM (inactive) in the assay with RPMI-8226. Besides, the GI50 was > 100 µM (inactive) with SF-539; 71.4 µM (inactive) in the assay on SK-MEL-2; > 100 µM (inactive) in the assay on SN12C; 37 µM (inactive) with SNB-19; 81.7 µM (inactive) in the assay on U-251; 68.9 µM (inactive) in the assay with UACC-62.
With `COc1ccc(/C=C2\C[C@H]3[C@@H]4CCC5=CC(=O)CC[C@]5(C)[C@H]4CC[C@]3(C)C2=O)cc1OC`, the GI50 with COLO 205 was 3.1 µM (inactive); in the assay with HOP-62, 0.332 µM (active); in the assay on KM12, 0.279 µM (active); in the assay on LOX IMVI it was 11.9 µM (inactive); with MCF7 it was 4.67 µM (inactive); in the assay on Malme-3M, 8.65 µM (inactive). Further, the GI50 is 17.6 µM (inactive) in the assay on NCI-H23; 6.93 µM (inactive) in the assay with NCI-H460; 13.2 µM (inactive) in the assay with OVCAR-4; 32.4 µM (inactive) with OVCAR-5; 3.89 µM (inactive) in the assay on RPMI-8226; 18 µM (inactive) in the assay on RXF 393. The GI50 in the assay on SF-539 is 40 µM (inactive); with SK-MEL-2 it was 4.13 µM (inactive); with SN12C, 14.4 µM (inactive); in the assay with SNB-19, 44.6 µM (inactive); in the assay with SR, 2.81 µM (inactive); with UACC-62 it was 6.24 µM (inactive).
`COC(=O)c1ccccc1C1CN=NC12Cc1cc(C)c(C)cc1C2=O` (stereo not drawn): the GI50 in the assay on COLO 205 is 49.9 µM (inactive); in the assay with HOP-62, 78 µM (inactive); in the assay on KM12, 29.7 µM (inactive); in the assay with LOX IMVI, 20.4 µM (inactive); in the assay with MCF7, 24.4 µM (inactive); in the assay on MDA-MB-231, 27.2 µM (inactive). Also, the GI50 with Malme-3M is 52.4 µM (inactive); in the assay on NCI-H23, 29.1 µM (inactive); with NCI-H460 it was 44.1 µM (inactive); with OVCAR-4 it was 29.6 µM (inactive); in the assay on OVCAR-5, > 100 µM (inactive); with RXF 393 it was 66.2 µM (inactive). For the same compound, the GI50 with SF-539 was 84.3 µM (inactive); in the assay with SK-MEL-2, 49.7 µM (inactive); with SN12C it was 48.9 µM (inactive); in the assay with SNB-19 it was 54.8 µM (inactive); in the assay on U-251, 41.6 µM (inactive); with UACC-62, 53 µM (inactive).
Turning to `CC1(C)OCC(C2CCC3(C)C4=CCC5C(C)(C)C(O)CCC5(C)C4CCC23C)CC(O)C1O` (stereo not drawn), the GI50 is 22.5 µM (inactive) with COLO 205; 14.5 µM (inactive) with KM12; 17.1 µM (inactive) in the assay with LOX IMVI; 20.7 µM (inactive) in the assay on MCF7; 18.1 µM (inactive) in the assay with MDA-MB-231; 15.6 µM (inactive) in the assay on Malme-3M. The GI50 in the assay on NCI-H23 is 17.8 µM (inactive); with NCI-H460, 17 µM (inactive); in the assay on OVCAR-4, 14.1 µM (inactive); with OVCAR-5, 19.1 µM (inactive); in the assay on RPMI-8226, 6.75 µM (inactive); in the assay with SF-539, 18.8 µM (inactive). Besides, the GI50 with SK-MEL-2 is 16.3 µM (inactive); with SN12C, 18.7 µM (inactive); in the assay on SNB-19, 14.8 µM (inactive); in the assay on U-251, 15.4 µM (inactive); with UACC-62, 14.5 µM (inactive).
As to `Cn1ccc(C(=O)NCCCCCNC(=O)c2ccn(C)c(=O)c2O)c(O)c1=O`, the GI50 in the assay on COLO 205, in the assay with KM12, with LOX IMVI, in the assay on MDA-MB-231, in the assay on Malme-3M and with NCI-H23 was > 100 µM (inactive) in each case. In addition, the GI50 in the assay with NCI-H460, in the assay on OVCAR-4, in the assay on SK-MEL-2, in the assay on SN12C, in the assay on SNB-19 and in the assay on SR was > 100 µM (inactive) in each case. The GI50 in the assay with U-251 and with UACC-62 was > 100 µM (inactive) throughout.
For `O=C(/N=N/c1ccccc1Br)NNc1ccccc1Br`, the GI50 was > 100 µM (inactive) in the assay with HOP-62; 91.4 µM (inactive) in the assay with LOX IMVI; 62.2 µM (inactive) in the assay with MDA-MB-231; 38.2 µM (inactive) with Malme-3M; 48.9 µM (inactive) in the assay on NCI-H23; 70.3 µM (inactive) with NCI-H460. The GI50 in the assay with OVCAR-4 was 56.2 µM (inactive); with OVCAR-5, > 100 µM (inactive); with RPMI-8226, 33.8 µM (inactive); in the assay on SK-MEL-2 it was 35.4 µM (inactive); in the assay on SN12C it was 77.6 µM (inactive); in the assay with SNB-19, > 100 µM (inactive). In addition, the results for the GI50 with SR, with U-251 and in the assay with UACC-62 were 32.8 µM (inactive), 60.8 µM (inactive) and 48.8 µM (inactive), respectively.
As for `Clc1ccc(-c2nc3ccc4ccccc4c3c3c2CCCC3)cc1`, the GI50 with COLO 205, in the assay with HOP-62, in the assay with KM12, in the assay with MCF7, in the assay on MDA-MB-231 and with Malme-3M was > 100 µM (inactive) each time. The GI50 in the assay on NCI-H23 was > 100 µM (inactive); in the assay on NCI-H460 it was 97.3 µM (inactive); with OVCAR-5, 1.55 µM (inactive); with RPMI-8226 it was > 100 µM (inactive); in the assay on RXF 393, > 100 µM (inactive); in the assay with SF-539 it was > 100 µM (inactive). Besides, the GI50 with SK-MEL-2 was > 100 µM (inactive); in the assay on SNB-19, > 100 µM (inactive); in the assay with U-251 it was 94.4 µM (inactive); with UACC-62 it was > 100 µM (inactive).
Regarding `Cc1ccc(C)c2c1CC(Cc1ccccc1C(=O)O)C2=O` (stereo not drawn), the GI50 with COLO 205, in the assay with HOP-62, in the assay on KM12, in the assay with LOX IMVI, with MCF7 and in the assay with MDA-MB-231 was > 100 µM (inactive) each time. Also, the GI50 in the assay with Malme-3M is > 100 µM (inactive); in the assay on NCI-H23, > 100 µM (inactive); with NCI-H460, > 100 µM (inactive); with OVCAR-4 it was > 100 µM (inactive); in the assay on OVCAR-5 it was > 100 µM (inactive); with RXF 393, 83.2 µM (inactive). Further, the GI50 in the assay with SF-539, with SK-MEL-2, with SN12C, with SNB-19, with U-251 and in the assay on UACC-62 was > 100 µM (inactive) in each case.
Consider `OCC(O)COCn1cc(Cn2ncc3c(SCc4ccccc4)ncnc32)nn1` (stereo not drawn), for which the GI50 in the assay on COLO 205, in the assay on HOP-62, in the assay with KM12, with LOX IMVI, in the assay with MCF7 and with MDA-MB-231 was > 100 µM (inactive) throughout. Also, the GI50 in the assay with NCI-H23, in the assay with OVCAR-4, in the assay on OVCAR-5, in the assay with RPMI-8226, in the assay with SF-539 and in the assay on SK-MEL-2 was > 100 µM (inactive) throughout. Further, the GI50 with SN12C, in the assay on SNB-19, with U-251 and in the assay on UACC-62 was > 100 µM (inactive) in each case.
